Values quoted from earlier work in patent publication US8404645B2, “Stable formulations of amylin and its analogues” (Novo Nordisk AS, priority 2007, dated 2013).
Where no end group is shown, it is not given here.

Conditions: treated test animals; provoking marked hyperlactemia followed by hyperglycemia

Substance: Arg18 Pro25 Pro28-h-amylin
- Amylin activity in vivo: show amylin activity in vivo

Substance: Arg18 Pro25 Pro 28-des-Lys1-h-amylin
- Amylin activity in vivo: show amylin activity in vivo

Substance: Pro25 Val26 Pro 28 Pro29-h-amylin
- Amylin activity in vivo: show amylin activity in vivo

Substance: Pro28-h-amylin (KCNTATCATQRLANFLVHSSNNFGAILPSTNVGSNTY; ends and bridges not checked; cysteine pairing not given here; UniProt P10997 34-70, looked up, variant S28P) [human amylin analog, Pro at position 28]
- Amylin activity in vivo: show amylin activity in vivo

Substance: des-Lys1-h-amylin
- Amylin activity in vivo: show amylin activity in vivo
